Test results as given in paper PMC4666645 (PLoS Pathogens, 2015).
“And” between values parts separate entries of the source, which are not always exact repeats. Identical values can stand only once. Counter-ions that a name gives are not always drawn. Like-named read-outs stand apart in the source and are kept apart here.

Columns and labels:
Hco-26/27 receptor = Hco-26/27 receptor (Haemonchus contortus, UniProt A9XX30+S4VAP0); test: cell-based
Source text: In order to investigate if the overlapping expression contributed to functional receptors, we co-expressed Hco-ACR-26 and Hco-ACR-27 in Xenopus laevis oocytes. We have previously reported that the functional expression of nematode muscle AChRs in Xenopus oocytes requires the addition of ancillary proteins. Therefore, cRNAs encoding the subunits Hco-ACR-26 and Hco-ACR-27, in combination with three ancillary proteins (Hco-ric-3.1, Hco-unc-74 and Hco-unc-50) were co-injected into Xenopus oocytes. […] Subsequently, different cRNA combinations were injected into Xenopus oocytes in order to determine the minimal subunit combination leading to the expression of a functional receptor and verify the ancillary factor requirement.
The subunit stoichiometry has been previously reported to impact the pharmacological properties of some nematode AChRs expressed in Xenopus oocytes.
(§1) H. contortus and P. equorum acr-26 and acr-27 cDNAs were PCR-amplified using primers containing a restriction site in order to be sub-cloned into the expression vector pTB207 that is suitable for in vitro transcription. Primers are listed in S3 Table. The resulting plasmids were linearized with the NheI restriction enzyme (Fermantas) and used as templates for cRNA synthesis using the T7 mMessage mMachine kit (Ambion). Xenopus laevis ovaries were obtained from the University of Rennes, France (CRB Xenope) and defolliculated using 2 mg/ml collagenase type II (Gibco) in the incubation solution containing: 100 mM NaCl, 2 mM KCl, 1.8 mM CaCl2.2H2O, 1 mM MgCl2.6H2O, 5 mM HEPES, 2.5 mM C3H3NaO3, pH 7.5, supplemented with penicillin 100 U/mL and streptomycin 100 μg/mL). The oocytes were injected in the animal pole with a total volume of 36 nL of cRNA mix containing 50 ng/μL of each cRNA in RNase-free water using the Drummond nanoject II microinjector. Microinjected oocytes were kept at 20°C in incubation medium for 4 days to allow the receptors expression. Two-electrode voltage-clamp recordings were carried out using an Oocyte Clamp OC-725C amplifier (Warner instrument) in oocytes being voltage-clamped at -60mV. All agonist preparations were prepared with recording buffer (100 mM NaCl, 2.5 mM KCl, 1 mM CaCl2.2H2O, 5 mM HEPES, pH 7.3). Currents were recorded and analyzed using the pCLAMP 10.4 package (Molecular Devices).

[1] = test system: C. elegans expressing Peq-26/27; test: Thrashing assay on transgenic C. elegans expressing Peq-26/27; assay type: in vivo, Caenorhabditis elegans
Source text: Taking advantage of the absence of acr-26 and acr-27 homologs in the C. elegans genome, we used wild type N2 worms to express these two parasitic nematode AChR subunits. […] For Peq-ACR-26 and Peq-ACR-27, even though the localization of these subunits in Parascaris equorum remains to be investigated in more detail, we also used myo3 as a promoter in order to compare the functional impact of Hco-26/27 and Peq-26/27 on both motility and drug sensitivity in transgenic C. elegans.
Worms were maintained at 20°C on nematode growth medium (NGM) plates and fed on a bacterial lawn (Escherichia coli OP50). Bristol N2 was used as a reference wild-type C. elegans strain. Dose-response assays were performed on gravid adults placed in wells of a 96-well plate containing M9 salt solution (3 g/L KH2PO4, 6 g/L Na2HPO4, 5 g/L NaCl, and 1 mM MgSO4 with BSA at 0.1%) with varying anthelmintic concentrations. After 10 min, worm thrashing was counted for 1 min. A thrash was defined as a change in the direction of bending at the mid-body to return to the initial position. For each drug concentration, 30 worms were tested. Hco-acr-26, Hco-acr-27, Peq-acr-26 and Peq-acr-27 coding sequences were sub-cloned into the pPD96.52 (Addgene) vector containing the muscle promoter Pmyo3. Primer sequences containing the suitable restriction sites are listed in S3 Table. Extrachromosomal transgenic strains of C. elegans were obtained by micro-injecting DNA into the gonads of young adult hermaphrodite worms as described. N2 worms were injected with different mixes containing Pmyo3::Hco-acr-26; Pmyo3::Hco-acr-27; Pmyo3::Peq-acr-26; Pmyo3::Peq-acr-27 alone or in combination (Pmyo3::Hco-acr-26 + Pmyo3::Hco-acr-27 or Pmyo3::Peq-acr-26 + Pmyo3::Peq-acr-27) with a final concentration of 40 ng/μl for each plasmid. The plasmid pPD118.33_Pmyo2::gfp (Addgene) was co-injected at 25 ng/μl as a transformation marker. […] Thrashes produced by each worm during 1 minute were counted after a 10 minutes equilibration period. After drug application, thrashes were counted after 10, 20 and 30 minutes of exposure. […]

C. elegans N2 = test: Dose-response thrashing assay on wild-type C. elegans N2; assay type: in vivo, Caenorhabditis elegans; details: for Minimal drug concentration causing significant reduction in wild-type motility: 10 min exposure
Protocol: Worms were maintained at 20°C on nematode growth medium (NGM) plates and fed on a bacterial lawn (Escherichia coli OP50). Bristol N2 was used as a reference wild-type C. elegans strain. Dose-response assays were performed on gravid adults placed in wells of a 96-well plate containing M9 salt solution (3 g/L KH2PO4, 6 g/L Na2HPO4, 5 g/L NaCl, and 1 mM MgSO4 with BSA at 0.1%) with varying anthelmintic concentrations. After 10 min, worm thrashing was counted for 1 min. A thrash was defined as a change in the direction of bending at the mid-body to return to the initial position. For each drug concentration, 30 worms were tested. Hco-acr-26, Hco-acr-27, Peq-acr-26 and Peq-acr-27 coding sequences were sub-cloned into the pPD96.52 (Addgene) vector containing the muscle promoter Pmyo3. Primer sequences containing the suitable restriction sites are listed in S3 Table. Extrachromosomal transgenic strains of C. elegans were obtained by micro-injecting DNA into the gonads of young adult hermaphrodite worms as described. N2 worms were injected with different mixes containing Pmyo3::Hco-acr-26; Pmyo3::Hco-acr-27; Pmyo3::Peq-acr-26; Pmyo3::Peq-acr-27 alone or in combination (Pmyo3::Hco-acr-26 + Pmyo3::Hco-acr-27 or Pmyo3::Peq-acr-26 + Pmyo3::Peq-acr-27) with a final concentration of 40 ng/μl for each plasmid. The plasmid pPD118.33_Pmyo2::gfp (Addgene) was co-injected at 25 ng/μl as a transformation marker. For each mixes, at least two independent lines were generated. For each line, thrashing assays were carried on at least 12 F1-worms carrying the selection marker. L4 larvae from N2 and transformed worms were transferred one day before the thrashing assay on NGM plate. One young adult was placed in each well of a 12-well plate containing M9 salt buffer. Thrashes produced by each worm during 1 minute were counted after a 10 minutes equilibration period. After drug application, thrashes were counted after 10, 20 and 30 minutes of exposure. Experimental data are shown as mean ± SEM. Statistical comparisons were done using the paired or unpaired Student’s t test or one-way ANOVA with Tukey’s multiple comparison test. A level of p<0.05 was considered significant. For each line, expression of the introduced acr-26 and/or acr-27 coding sequences from H. contortus or P. equorum was confirmed by RT-PCR experiments performed on 12 pooled worms. A partial sequence corresponding to the C. elegans endogenous AChR unc-38 transcript was amplified with primers designed on two independent exons in order to control the cDNA template quality. Primer sequences are listed in S3 Table.
Supplementary file ppat.1005267.s004.tif: S4 Fig Thrashing assays performed on C. elegans (N2) with different anthelmintic molecules. […] Thrashes of gravid wild-type adults were counted for one minute after 10 minutes of drug exposure. […] Results are expressed as mean ± SEM derived from three independent sets of experiments. For each treatment, 30 worms were included in the analysis. […] Statistical analyses were performed using a One-Way Anova with Tukey’s Multiple Comparison Test with **p<0.01, ***p<0.001. (TIF) Click here for additional data file.

Peq-26/27 receptor = Peq-26/27 receptor (Parascaris equorum, UniProt A0A0U2ES47+A0A0U2ES58); test: cell-based; details: for Emax at 100 µM: read-out: Current elicited, % of ACh response
Protocol: In order to determine if ACR-26 and ACR-27 subunits from other parasitic nematodes species could also form functional receptors when expressed in Xenopus oocyte, Peq-acr-26 and Peq-acr-27 cRNAs from the distantly related P. equorum (Clade III) were co-injected in combination with Hco-ric-3.1, Hco-unc-74 and Hco-unc-50 cRNAs. Four days after injection, we observed robust expression of a functional AChR responding to 100 μM ACh (Fig 6B). […] This novel heteropentameric AChR was named Peq-26/27.
as §1

[2] = read-out: Current elicited, % of ACh response, 100 μM agonist, normalized to 100 μM ACh current, equal subunit ratio
[3] = read-out: Relative maximal current (Imax) normalized to 100 μM acetylcholine, cRNA ratio 1:1 26/27, 100 μM agonist
[4] = read-out: Relative maximal current (Imax) normalized to 100 μM acetylcholine, cRNA ratio 1:5 26/27, 100 μM agonist
[5] = read-out: Relative maximal current (Imax) normalized to 100 μM acetylcholine, cRNA ratio 5:1 26/27, 100 μM agonist
[6] = Caenorhabditis elegans, 10 min, 10 min drug exposure, gravid adults, read-out: IC50 (reduction of thrashing)

Hco-26/27 receptor, sequence (A9XX30 entry or part of it): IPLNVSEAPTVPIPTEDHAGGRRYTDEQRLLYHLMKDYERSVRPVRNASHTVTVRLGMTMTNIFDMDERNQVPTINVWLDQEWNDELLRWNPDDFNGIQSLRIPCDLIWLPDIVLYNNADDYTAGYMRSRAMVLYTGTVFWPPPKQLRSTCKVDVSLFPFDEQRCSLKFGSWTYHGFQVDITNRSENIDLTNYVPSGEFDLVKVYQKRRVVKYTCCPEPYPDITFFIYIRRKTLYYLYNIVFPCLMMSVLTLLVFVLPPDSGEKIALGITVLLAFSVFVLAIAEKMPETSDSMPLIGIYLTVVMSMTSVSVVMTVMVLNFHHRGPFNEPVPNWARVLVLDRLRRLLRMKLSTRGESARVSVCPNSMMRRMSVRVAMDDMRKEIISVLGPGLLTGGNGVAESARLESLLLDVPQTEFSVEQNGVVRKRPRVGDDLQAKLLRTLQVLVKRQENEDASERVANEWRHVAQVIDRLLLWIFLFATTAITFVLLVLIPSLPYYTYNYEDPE
Hco-26/27 receptor, sequence (S4VAP0 entry or part of it): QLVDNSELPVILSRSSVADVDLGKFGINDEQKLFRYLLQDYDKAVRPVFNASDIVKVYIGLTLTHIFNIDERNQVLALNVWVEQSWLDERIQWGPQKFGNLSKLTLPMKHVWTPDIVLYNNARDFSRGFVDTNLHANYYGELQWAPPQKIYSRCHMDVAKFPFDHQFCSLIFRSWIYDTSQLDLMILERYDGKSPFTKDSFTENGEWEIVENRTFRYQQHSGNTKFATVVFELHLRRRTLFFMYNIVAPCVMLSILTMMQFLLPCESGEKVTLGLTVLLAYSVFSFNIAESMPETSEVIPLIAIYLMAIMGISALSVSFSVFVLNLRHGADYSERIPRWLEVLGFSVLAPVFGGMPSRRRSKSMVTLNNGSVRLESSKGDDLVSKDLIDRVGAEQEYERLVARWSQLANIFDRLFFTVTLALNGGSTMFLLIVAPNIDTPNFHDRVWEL
Peq-26/27 receptor, sequence (A0A0U2ES58 entry or part of it): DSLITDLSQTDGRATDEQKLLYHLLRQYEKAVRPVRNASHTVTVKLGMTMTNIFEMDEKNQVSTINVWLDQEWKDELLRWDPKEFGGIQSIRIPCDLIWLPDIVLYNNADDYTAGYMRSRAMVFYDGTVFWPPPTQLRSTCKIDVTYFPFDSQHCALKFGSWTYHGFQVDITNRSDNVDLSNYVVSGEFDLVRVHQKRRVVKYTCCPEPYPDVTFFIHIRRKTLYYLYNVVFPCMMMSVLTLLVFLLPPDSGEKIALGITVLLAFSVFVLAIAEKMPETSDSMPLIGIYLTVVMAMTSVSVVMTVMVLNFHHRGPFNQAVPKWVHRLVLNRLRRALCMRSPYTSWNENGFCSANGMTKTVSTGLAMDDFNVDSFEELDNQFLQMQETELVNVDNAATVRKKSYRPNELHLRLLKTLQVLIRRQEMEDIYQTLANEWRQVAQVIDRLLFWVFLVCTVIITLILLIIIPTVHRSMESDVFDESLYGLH
Peq-26/27 receptor, sequence (A0A0U2ES47 entry or part of it): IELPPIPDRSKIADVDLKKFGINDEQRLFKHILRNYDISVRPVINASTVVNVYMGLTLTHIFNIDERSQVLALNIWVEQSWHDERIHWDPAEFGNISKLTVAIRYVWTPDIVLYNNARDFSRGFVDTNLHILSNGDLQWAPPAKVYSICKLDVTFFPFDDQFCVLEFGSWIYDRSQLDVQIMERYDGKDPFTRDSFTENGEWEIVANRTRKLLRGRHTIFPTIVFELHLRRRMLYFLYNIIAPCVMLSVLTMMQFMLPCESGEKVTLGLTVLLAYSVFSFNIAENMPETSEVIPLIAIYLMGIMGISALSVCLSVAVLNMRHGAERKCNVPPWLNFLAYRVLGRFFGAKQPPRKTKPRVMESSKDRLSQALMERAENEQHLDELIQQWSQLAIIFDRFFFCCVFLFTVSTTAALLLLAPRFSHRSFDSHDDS

Row | Compound | EC50 (Hco-26/27 receptor) [µM] | Emax at 100 µM (Hco-26/27 receptor; [2]) [%] | Emax at 100 µM (Hco-26/27 receptor; [3]) [%] | Emax at 100 µM (Hco-26/27 receptor; [4]) [%] | Emax at 100 µM (Hco-26/27 receptor; [5]) [%] | Percentage reduction of thrashes min^-1 ([1]; 50 μM Pyr, 10 minutes of drug exposure) [%] | Minimal drug concentration causing significant reduction in wild-type motility (C. elegans N2) [µM] | IC50 (C. elegans N2; [6]) [µM] | Emax at 100 µM (Peq-26/27 receptor) [%] | Imax reduction with fivefold increase of Hco-ACR-27 versus equal subunit ratios (Hco-26/27 receptor; 100 μM, p<0.001) [fold] | Reduction of thrashing motility ([1]; 40 μM Mor, 10 minutes exposure) [%] | IC50 (C. elegans N2; Caenorhabditis elegans, 10 min, read-out: IC50 (reduction of thrashing), 10 min drug exposure, gravid adults) [µM] | IC50 (C. elegans N2; read-out: IC50 (reduction of thrashing), 10 min drug exposure, gravid adults) [µM] | Current elicited, % of ACh response (Hco-26/27 receptor; 100 μM agonist, normalized to 100 μM ACh current, equal subunit ratio) | Change in sensitivity versus N2 ([1]; 5 μM Lev) | EC50 (Peq-26/27 receptor; EC50, responses normalized to 1 mM ACh)
1 | CN1CCCN=C1/C=C/c1cccs1 [Pyr, pyrantel] | 6.8 ± 1.3 | 81 ± 6.21 | 81 ± 6.21 | 83.1 ± 17.9 | 84.1 ± 8.54 | 61.6 | 50 | 107 ± 1.2 | 21.8 ± 2.1 | – | – | – | – | – | – | –
2 | Cc1ccsc1/C=C/C1=NCCCN1C [Mor, morantel] | 29 ± 1.3 | 249 ± 11.5 | 249 ± 11.5 | 137 ± 19.7 | 265 ± 29.1 | – | 40 | – | 74.5 ± 4.9 | 2 | 62.7 | 44 ± 1.03 | 44.1 ± 1 | – | – | –
3 | c1ccc([C@H]2CN3CCSC3=N2)cc1 [Lev, (-)-tetramisole hydrochloride] | – | – | 3.46 ± 1.44 | 4.18 ± 2.89 | 1.77 ± 1.77 | – | 5 | 7 ± 1.1 | 24.5 ± 2.4 | – | – | – | – | insensitive | no significant change | 16.7 µM and 17 µM
